{"source": "patent US20080113908A1", "about": "“Use of CRF receptor agonists for the treatment or Prophylaxis of diseases, for example Neurodegenerative diseases” (SmithKline Beecham plc, priority 2000, published 2008)", "key": {"[1]": {"test_system": "hippocampal neurones", "experiment": "Amyloid-β peptide (25-35) toxicity, survival by counting viable neurons (FIGS. 8, 9)", "type": "cell-based", "details": "for neuronal death: 10-20 μM", "description": "In order to test whether CRF receptor agonists protect neurones from death caused by Aβ, the following experiment was conducted (FIGS. 8 and 9). Hippocampal neurons from embryonic day 18 rat were cultured in serum-free medium (neurobasal/B27) for 9 days. The culture methods are described on page 48 of S. D. Skaper et al., J. Neurochem., 2001, 76, 47-55. Cells were then treated with amyloid-β peptide (fragment 25-35) (Sigma, cat. no. A-4559, sequence Gly-Ser-Asn-Lys-Gly-Ala-Ile-Ile-Gly-Leu-Met) at 10 μM plus the indicated CRF receptor agonist at the indicated concentration, in the same culture medium. […] Cell survival was assessed after 3 days, by fixing the cultures and counting microscopically viable neurons. Values are expressed relative to numbers of surviving neurons in untreated cultures (=100)."}, "[2]": {"test_system": "primary cerebellar granule neurones", "experiment": "Assay 2: effect of CP154,526 on agonist protection against LY294002 neurotoxicity", "type": "cell-based, rat", "details": "LY 294002 75 μM; for effect of CP 154,526 on neuroprotective effect of CRF receptor agonist (FIGS. 2B-D): urocortin, urotensin 1 or sauvagine 10 nM", "description": "Assay 2: This assay measures the effects of CP154,526, a selective CRF receptor-1 antagonist, on the protective effects of a putative CRF receptor agonist against neurotoxicity induced by LY294002 in primary cerebellar granule neurones. The assay is identical to Assay 1 except that after shifting the granule neurone cultures to the medium, the cultures were incubated with CP154,526 at concentrations varying from 3 nM to 1000 nM for 30 minutes prior to simultaneous addition of the putative CRF receptor agonist (10 nM) and LY 294002 (75 μM). 48 hours later neuronal survival was measured as in Assay 1.\nThe columns from left to right represent: (1) control: cells cultured with CRF (10 nM) and LY 294002 (75 μM); (2 to 7) cells cultured with CRF (10 nM), LY 294002 (75 μM) and CP 154,526 at concentrations of 3 nM, 10 nM, 30 nM, 100 nM, 300 nM and 1000 nM respectively; and (8) cells cultured without agonist (CRF) but with LY 294002 (75 μM)."}, "[3]": {"test_system": "cerebellar granule neurones", "experiment": "Assay 3: intracellular cyclic AMP enzyme immunoassay", "type": "cell-based, rat", "details": "agonist 0 to 30 nM, 15 min, 0.5 mM IBMX", "description": "Assay 3: The production of cAMP by the CRF receptor agonist peptides CRF, urotensin 1, urocortin and sauvagine was measured as follows. This assay can be used analogously for any putative CRF receptor agonists including non-peptide agonists.\nIntracellular cyclic AMP was measured with a cAMP 2-site enzyme immunoassay system (trade mark BIOTRAK, commercially available from Amersham Pharmacia Biotech, PO Box 164, Rainham, Essex RM13 8JZ, United Kingdom, Amersham catalogue number RPN225), based upon the use of a sensitive and highly specific capture antibody for cyclic AMP:\nCerebellar granule neurones were seeded in polylysine-coated […] plates, 3.5×10^5 cells per 48-well, in Basal medium Eagle's containing 10% fetal calf serum, 25 mM KCl, and antibiotics. At 8-9 days in vitro, granule neurone cultures were shifted to serum-free plating medium (0.4 ml) with 0.5 mM IBMX (to inhibit the breakdown of cyclic AMP) for 15 min (37° C.). Wells then received 0.1 ml of test peptide (5× final concentration). Generally 1 μM is the preferable final concentration for a putative CRF agonist under test, though different (e.g. lower) concentrations can be used as shown for the peptide agonists in FIG. 3. Incubation was continued for 15 min. Test medium was removed and the plate placed on dry ice, and stored at −140° C. Cyclic AMP analysis was performed the following day.\nCells were then lysed with the reagent provided with the BIOTRAK kit. Intracellular content of cyclic AMP in the lysates was assayed following the manufacturer's instructions. A standard curve was constructed using the cyclic AMP calibration provided, with the quantity of bound cyclic AMP being inversely proportional to the amount of second (chromogenic) antibody bound to the reaction wells. The colour product was read with an ELISA plate reader, and was a function of the amount of cyclic AMP in the unknown sample."}, "[4]": {"test_system": "cerebellar granule neurones", "type": "cell-based, rat", "details": "48 h, MTT, sham-treated = 100%", "description": "Cerebellar granule neurones were used in the examples to test neuroprotection by CRF receptor agonists. Cerebellar granule neurones (CGNs) undergo apoptosis during the first few weeks of postnatal life, and in culture require mildly depolarising concentrations of KCl (25 mM) for their survival and maturation (S. R: D'Mello et al., Proc. Natl. Acad. Sci. USA 90, 10989-10993, 1993). The growth signal provided by KCl depends upon activation of the phosphatidylinositol 3-kinase (PI 3-kinase) pathway, and pharmacological inhibition of PI 3-kinase in differentiated granule neurones leads to apoptotic death in the CGNs (T. M. Miller et al., J. Biol. Chem., 272, 9847-9853, 1997). Thus, cultured CGNs represent a suitable model to study mechanisms of programmed cell death, and to identify putative neuroprotective signalling pathways.\nAssay 1: Cerebellar granule neurones prepared from postnatal day 8 Sprague Dawley rat pups were used for experiments on death induced by inhibition of PI 3-kinase. General culture methods are described in S. D. Skaper et al. in Methods in Neurosciences, Vol. 2 (Conn P. M., ed), pp. 17-33. Academic Press, San Diego, 1990. At 8-9 days in vitro (DIV), granule neurone cultures were shifted to phenol red-free Dulbecco's modified Eagle's medium lacking serum, and containing 0.05% bovine serum albumin and 25 mM KCl. Death was induced by addition of the PI 3-kinase inhibitor LY 294002 (75 μM). CRF or CRF agonist peptides (urotensin 1, urocortin, sauvagine) were added at different concentrations (from 0.3nM to 300 nM or 1000 nM) together with LY 294002. Forty-eight hours later neuronal survival was quantified by a colorimetric reaction MTT. Absolute MTT values obtained were normalised for small differences in interexperiment plating densities by scaling to the mean of sham-treated sister cultures (defined as 100%).\nResults are shown in Table 1 below and in graphical form in FIG. 1, which show the percentage mean neuronal survival (and standard deviation), when in the presence of the relevant CRF receptor agonists and LY 294002, as a function of agonist concentration. […] Urotensin 1, urocortin and sauvagine were also neuroprotective albeit with lower potency (<1 μM)."}, "[5]": {"molecular_target": "CRF receptor-1 (Type 1 CRF receptor) on primary rat neurones (rat, UniProt P35353)", "experiment": "cell-based or functional assay"}, "[6]": {"details": "agonist 0.3 nM with LY 294002 75 μM"}, "[7]": {"details": "agonist 1 nM with LY 294002 75 μM"}, "[8]": {"details": "agonist 3 nM with LY 294002 75 μM"}, "[9]": {"details": "agonist 10 nM with LY 294002 75 μM"}, "[10]": {"details": "agonist 30 nM with LY 294002 75 μM"}, "[11]": {"details": "agonist 100 nM with LY 294002 75 μM"}, "[12]": {"details": "agonist 300 nM with LY 294002 75 μM"}}, "note": "Like-named read-outs stand apart in the source and are kept apart here. Ends that are not written are not given here."}
{"molecule": "CCCCN(CC)c1nc(C)nc2c1c(C)cn2-c1c(C)cc(C)cc1C", "note": "[CP 154,526]", "values": [{"measurement": "effect of CP-154,526 on CRF's neuroprotection (FIG. 8)", "setting": "[1]; CP-154,526 1 μM with CRF (30 nM) and Aβ(25-35) 10 μM, 3 days", "value": "cancels all of CRF's neuroprotection"}, {"measurement": "effect of CP 154,526 on neuroprotective effect of CRF receptor agonist (FIGS. 2B-D)", "setting": "[2]; CP 154,526 300 nM", "value": "partial reductions in neuroprotection"}, {"measurement": "effect of CP 154,526 on neuroprotective effect of CRF receptor agonist (FIGS. 2B-D)", "setting": "[2]; CP 154,526 1000 nM", "value": "remove most or all of the neuroprotective effect"}, {"measurement": "effect of CP 154,526 on neuroprotective effect of CRF (FIG. 2A)", "setting": "[2]; CP 154,526 as low as 300 nM, CRF 10 nM", "value": "remove almost completely the neuroprotective effect of 10 nM CRF"}]}
{"molecule": "CC[C@H](C)[C@H](NC(=O)[C@@H](NC(=O)[C@H](CC(=O)O)NC(=O)[C@H](CC(C)C)NC(=O)[C@H](CC(C)C)NC(=O)[C@H](CC(C)C)NC(=O)[C@H](CCCNC(=N)N)NC(=O)[C@H](CC(N)=O)NC(=O)[C@H](CC(N)=O)NC(=O)[C@H](C)NC(=O)[C@H](C)NC(=O)[C@H](CCC(N)=O)NC(=O)[C@H](CCC(N)=O)NC(=O)[C@H](CCCCN)NC(=O)[C@H](CCC(=O)O)NC(=O)[C@H](CCCCN)NC(=O)[C@H](CCC(=O)O)NC(=O)[C@H](CCC(N)=O)NC(=O)[C@H](CCCCN)NC(=O)[C@H](CCC(=O)O)NC(=O)[C@@H](NC(=O)[C@H](CCC(=O)O)NC(=O)[C@@H](NC(=O)[C@H](CCSC)NC(=O)[C@H](CCCCN)NC(=O)[C@H](CCCNC(=N)N)NC(=O)[C@H](CC(C)C)NC(=O)[C@H](CC(C)C)NC(=O)[C@H](CCC(=O)O)NC(=O)[C@H](CC(C)C)NC(=O)[C@H](CO)NC(=O)[C@H](CC(C)C)NC(=O)[C@H](CC(=O)O)NC(=O)[C@@H](NC(=O)[C@H](CO)NC(=O)[C@@H](NC(=O)[C@@H]1CCCN1C(=O)[C@@H]1CCCN1C(=O)CNC(=O)[C@@H]1CCC(=O)N1)[C@@H](C)CC)[C@@H](C)CC)[C@@H](C)CC)[C@@H](C)CC)[C@@H](C)O)C(N)=O", "note": "[Sauvagine]", "values": [{"measurement": "cAMP synthesis induced by agonist (FIG. 3)", "setting": "[3]", "value": "cAMP production increased with agonist concentration"}, {"measurement": "Mean survival %", "setting": "[4]; [6]", "value": 49.33, "unit": "%"}, {"measurement": "Mean survival %", "setting": "[4]; [7]", "value": 66.5, "unit": "%"}, {"measurement": "Mean survival %", "setting": "[4]; [8]", "value": 76.33, "unit": "%"}, {"measurement": "Mean survival %", "setting": "[4]; [9]", "value": 80.67, "unit": "%"}, {"measurement": "Mean survival %", "setting": "[4]; [10]", "value": 78.67, "unit": "%"}, {"measurement": "Mean survival %", "setting": "[4]; [11]", "value": 77.33, "unit": "%"}, {"measurement": "Mean survival %", "setting": "[4]; [12]", "value": 78.33, "unit": "%"}]}
{"molecule": "DDPPLSIDLTFHLLRTLLELARTQSQRERAEQNRIIFDSV [Urocortin, Urocortin (rat, Sigma Cat. no. U-6631), CRF receptor agonist peptide]", "values": [{"measurement": "cAMP synthesis induced by agonist (FIG. 3)", "setting": "[3]", "value": "cAMP production increased with agonist concentration"}, {"measurement": "Mean survival %", "setting": "[4]; [6]", "value": 50.67, "unit": "%"}, {"measurement": "Mean survival %", "setting": "[4]; [7]", "value": 61.33, "unit": "%"}, {"measurement": "Mean survival %", "setting": "[4]; [8]", "value": 69.33, "unit": "%"}, {"measurement": "Mean survival %", "setting": "[4]; [9]", "value": 77.33, "unit": "%"}, {"measurement": "Mean survival %", "setting": "[4]; [10]", "value": 80.67, "unit": "%"}, {"measurement": "Mean survival %", "setting": "[4]; [11]", "value": 75, "unit": "%"}, {"measurement": "Mean survival %", "setting": "[4]; [12]", "value": 84, "unit": "%"}]}
{"molecule": "GSNKGAIIGLM [Aβ, Gly-Ser-Asn-Lys-Gly-Ala-Ile-Ile-Gly-Leu-Met]", "values": [{"measurement": "neuronal death", "setting": "[1]; after 2-3 days", "value": "cell death was visible"}, {"measurement": "neuronal death", "setting": "[1]; after 1 day of exposure", "value": "no visible neuronal death"}]}
{"molecule": "MLGIIAGKNSG [reverse β-amyloid sequence (35-25)]", "values": [{"measurement": "neurotoxicity of peptide", "setting": "[1]; 20 μM, results not shown", "value": "not to be neurotoxic"}]}
{"molecule": "SQEPPISLDLTFHLLREVLEMTKADQLAQQAHNNRKLLDIA-NH2", "note": "[Rat CRF (corticotropin-releasing factor), Sigma catalogue no. C-3042]", "values": [{"measurement": "EC50 of neuroprotection of cerebellar granule neurones against LY 294002 (Assay 1)", "setting": "[5]", "value": "~10", "unit": "nM"}]}
{"molecule": "NDDPPISIDLTFHLLRNMIEMARIENEREQAGLNRKYLDEV-NH2", "note": "[Urotensin 1 (teleost fish, Sigma cat. no. U-7253)]", "values": [{"measurement": "potency of neuroprotection of cerebellar granule neurones against LY 294002 (Assay 1)", "setting": "[5]", "value": "< 1000", "unit": "nM"}]}
{"molecule": "DDPPLSIDLTFHLLRTLLELARTQSQRERAEQNRIIFDSV-NH2", "note": "[Urocortin (rat, Sigma Cat. no. U-6631)]", "values": [{"measurement": "potency of neuroprotection of cerebellar granule neurones against LY 294002 (Assay 1)", "setting": "[5]", "value": "< 1000", "unit": "nM"}]}
